We go through eight compounds from US8119819B2 (Chugai Seiyaku Kabushiki Kaisha, priority 2001, dated 2012).

The first assay deals with T1, malonyl-CoA decarboxylase prepared from rat heart (Rattus norvegicus, UniProt Q920F5).
T1 construct: malonyl-CoA decarboxylase prepared from rat heart; from tissue; host or cells: rat heart
T1 sequence (Q920F5 39-492): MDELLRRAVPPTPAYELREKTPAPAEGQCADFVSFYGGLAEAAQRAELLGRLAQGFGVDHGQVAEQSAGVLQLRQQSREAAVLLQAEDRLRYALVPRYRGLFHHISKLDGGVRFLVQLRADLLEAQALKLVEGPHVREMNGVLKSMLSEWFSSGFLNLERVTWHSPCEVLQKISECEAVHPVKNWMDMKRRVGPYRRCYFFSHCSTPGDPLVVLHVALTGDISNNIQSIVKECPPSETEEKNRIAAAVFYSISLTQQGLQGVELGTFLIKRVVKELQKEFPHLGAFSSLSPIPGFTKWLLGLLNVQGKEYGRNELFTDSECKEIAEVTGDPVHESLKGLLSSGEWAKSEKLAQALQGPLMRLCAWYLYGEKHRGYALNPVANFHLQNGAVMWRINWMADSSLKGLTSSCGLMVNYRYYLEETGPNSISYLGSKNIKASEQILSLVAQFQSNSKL
In words: In Vitro MCD inhibitory assay (spectrophotometric, 96 well). Particulars: read-out: IC50 of the MCD inhibitors. Type of assay: biochemical. On the procedure: The following reagents are added into a 96 well titer plate: Tris-HCl buffer, 20 μL; DTE, 10 μL; 1-malate, 20 μL; NAD, 10 μL; NADH, 25 μL; water, 80 μL; malic dehydrogenase, 5 μL. The contents are mixed and incubated for 2 min followed by the addition of 5 μL of citrate synthase.
As to `CCCCN(C(=O)NCC)c1ncc(C(O)(C(F)(F)F)C(F)(F)F)s1` [Example 1-3-1, N-butyl-N′-ethyl-N-{5-[2,2,2-trifluoro-1-hydroxy-1-(trifluoromethyl)ethyl]-1,3-thiazol-2-yl}urea], the half-inhibitory concentration (IC50) (usually the point on the concentration scale where inhibition reaches its midpoint) turned out to be 213 nM. Still for that read-out and setting: under `Cc1ccc(C2=NOC(C(O)(C(F)(F)F)C(F)(F)F)C2)cc1` (stereo not drawn) [Example 11-1, 1,1,1,3,3,3-hexafluoro-2-[3-(4-methylphenyl)-4,5-dihydroisoxazol-5-yl]propan-2-ol] stands 388 nM; under `O=CN(Cc1ccncc1)c1ncc(C(O)(C(F)(F)F)C(F)(F)F)s1` [Example 1-4, pyridin-4-yl methyl {5-[2,2,2-trifluoro-1-hydroxy-1-(trifluoromethyl)ethyl]-1,3-thiazol-2-yl}formamide], 463 nM. Still for that read-out and setting: to `CC(C)N(C(=O)C1=NOC(C(O)(C(F)(F)F)C(F)(F)F)C1)C(C)C` (stereo not drawn) [Example 8-3-3] belongs 127 nM; to `O=S(=O)(Nc1ncc(C(O)(C(F)(F)F)C(F)(F)F)s1)c1ccc(Cl)cc1` [Example 3, 4-chloro-N-{5-[2,2,2,-trifluoro-1-hydroxy-1-(trifluoromethyl)ethyl]-1,3-thiazol-2-yl}benzenesulfonamide], 124 nM. Same read-out and setting: under `CN(CC#CC(O)(C(F)(F)F)C(F)(F)F)C(=O)CCc1ccccc1` [Example 7-1, N-methyl-3-phenyl-N-[5,5,5-trifluoro-4-hydroxy-4-(trifluoromethyl)pent-2-ynyl]propanamide] stands 739 nM.

In the case of `OC(C1CC(N2CCCC2)=NO1)(C(F)(F)F)C(F)(F)F` (stereo not drawn) [Example 9-2, 1,1,1,3,3,3-hexafluoro-2-(3-pyrrolidin-1-4,5-dihydroisoxazol-5-yl)propan-2-ol], the 50% inhibitory concentration (IC50) was 3710 nM.

The next assay deals with human breast cancer cells.
Test: not given
Particulars: breast carcinoma cells; cited from earlier work.
Regarding `CCCCCCCCCCCCCCOc1ccc(C(=O)O)o1` [TOFA, 5-(tetradecyloxy)-2-furoic acid], the malonyl-CoA level is 60 % of the control.

The assay is the same for the next values; noted with them: human breast cancer cells and xenografts; cited from earlier work.
On to `CCCCCCCCCCCCCCOc1ccc(C(=O)O)o1` [TOFA, 5-(tetradecyloxy)-2-furoic acid], for which the antitumor activity result is reported as “does not show any antitumor activity”.
